How the values were obtained:
[1] = test system: Bax; experiment: Western blot analysis of Bax protein in DU145; assay type: cell-based, human; conditions: DU145, 40 mM, 72 h
Method: (§1) After 0, 20 and 40 mM of D-allose treatments for 72 h, DU145 cell line (1×10^6 cells in triplicate culture plates) was harvested into cell lysis buffer (Cell Signaling, Danvers, Mass., USA) supplemented with 1 mM PMSF. The cells were then sonicated, centrifuged and protein concentration was measured by Bradford assay with the Bio-Rad protein assay solution using bovine serum albumin (BSA) as standard. Proteins (30 μg) were separated on a 12.5% SDS-PAGE under reducing conditions and transferred onto a PVDF membrane (Santa Cruz Biotechnology, Santa Cruz, Calif., USA). Prestained protein marker, broad range: 6-175 kDa (New England Biolabs Inc., Ipswich, Mass., USA) run in parallel for detection of the molecular weights of the proteins. Membrane was blocked with 5% (w/v) skimmed milk in order to reduce non-specific binding and immunoblotting was performed using rabbit derived anti-Bcl-2, anti-Bax, anti-Caspase 3 and anti-PARP antibodies (1:500; Santa Cruz Biotechnology, Santa Cruz, Calif., USA). […] Membrane was probed with a goat derived horseradish peroxidase-conjugated anti-rabbit IgG (1:1000; Santa Cruz Biotechnology, Santa Cruz, Calif., USA), and proteins were detected by the enhanced chemiluminescence (ECL) detection system according to the vendor's protocol (Amersham Biosciences, Piscataway, N.J., USA) followed by X-ray exposure. […]

[2] = test system: DU145 cell line; experiment: Quantification of apoptosis by annexin-V/PI flow cytometry; assay type: cell-based, human
Method: The Annexin-V-FLUOS Staining Kit (Roche Diagnostics GmbH, Mannheim, Germany) was used for the detection and quantification of the apoptotic cells. This kit uses a dual-staining protocol in which the apoptotic cells are stained with annexin-V (green fluorescence) and the necrotic cells are stained with propidium iodide (PI, red fluorescence). Briefly, DU145 cell line was grown at a density of 1×10^6 cells in triplicate culture plates and then treated with D-allose (0, 20 and 40 mM) for 48 and 72 h. The cells were treated with trypsin and harvested with PBS and processed for labeling with annexin-V and PI by the use of the kit according to the manufacturer's protocol. The fluorescence was measured by flow cytometric analysis, performed on a FACSCalibur (Becton Dickinson, San Jose, Calif., USA) using 488 nm excitation and a 515 nm band pass filter for fluorescein detection and a filter [600 nm for PI detection (FL1: Annexin-V-FLUOS; FL2: PI). Further, apoptotic indices were measured by analysis of fragmented or scattered nuclei and condensed chromosome as the stringent morphological criteria of apoptosis, detectable by confocal microscopy on cells stained with DNA-intercalating dye […] (DAPI). For this purpose, DU145 and PrEC cell lines were exposed to 0, 20 and 40 mM of D-allose for up to 72 h, stained with DAPI (1 μg/ml in methanol), mounted with Prolong Antifade reagent (Molecular Probes, Eugene, Oreg., USA), and images were acquired by use of a confocal laser scanning microscope (Fluoview FV 1000, Olympus, Japan). The numbers of apoptotic nuclei per 100 cells were counted from the five high power fields/slide and apoptotic indices were expressed as a percentage of the untreated controls in each cell line, considering the value as 100%. DU145 cell line was also treated with 0-40 mM of D-glucose for determination of apoptotic indices as mentioned above.

[3] = test system: cyt C; experiment: Mitochondrial cyt C release and nuclear morphology, immunofluorescence; assay type: cell-based, human; conditions: DU145, 20 and 40 mM, 48 h
Method: The in situ analysis of cyt C was carried out by immunofluorescence technique. […] Cyt C was detected by using mouse anti-cyt C antibody and rabbit anti-mouse FITC-labeled antibody (1:250 and 1:200, respectively; Santa Cruz Biotechnology, Santa Cruz, Calif., USA). DU145 cell line treated with FITC-labeled secondary antibody alone was considered as negative control. Subsequently, chromatin was stained with PI (1 mg/ml in PBS) for 20 min in dark and slides were mounted with Prolong Antifade reagent (Molecular Probes, Eugene, Oreg., USA). Cyt C (green) and chromatin (red) staining patterns were acquired by use of a confocal laser scanning microscope (Fluoview FV 1000, Olympus, Japan).

[4] = test system: PrEC cell line; experiment: Cell viability / cell growth, MTT assay; assay type: cell-based; conditions: human NPE cell line PrEC, 0-40 mM
Method: DU145 (human HRPC cell line, derived from a patient with brain metastasis) and PrEC (human normal prostate epithelial cell line) cell lines were obtained from Korea Cell Line Bank (KCLB, Seoul, South Korea). DU145 and PrEC cell lines were grown in triplicate culture plates containing RPMI-1640 (HyClone, Logan, Utah, USA) and Dulbecco's Modified Eagle's Medium (HyClone, Logan, Utah, USA) respectively, and kept in a humidified atmosphere containing 5% CO2 at 37° C. for 72 h. The media were supplemented with 10% heat-inactivated fetal bovine serum (HyClone, Logan, Utah, USA), 1% antibio-antimicotic solution containing 10,000 units/ml of penicillin and 10 mg/ml of streptomycin (HyClone, Logan, Utah, USA), HEPES, sodium bicarbonate, p-aminobenzoic acid and insulin (complete culture media). […]
The logarithmic growth phase of DU145 and PrEC cell lines were taken for growth assay using 3-[4,5-dimethylthiazol-2-yl]-2,5-diphenyl tetrazolium bromide (MTT). […] After incubation for the specified time at 37° C. in a humidified 5% CO2 incubator, cell viability was determined. […] To achieve solubilization of formazan crystal formed in viable cells, DMSO was added to each well, and the absorbance was recorded on a microplate reader at 595 nm wavelength. The effect of sugars on growth inhibition was assessed as percent cell viability where control cells were taken as 100% viable.

[5] = test system: Bcl-2; experiment: Western blot analysis of Bcl-2 protein in DU145; assay type: cell-based, human; conditions: DU145, 20 and 40 mM, 72 h
Method: as §1

O=C[C@H](O)[C@H](O)[C@H](O)[C@H](O)CO [D-allose]
Bax protein expression [1]: remarkably increased | apoptotic cells (annexin-V/PI) ([2]; DU145, 20 mM, 48 h, untreated control 1.2%): 5.1% | apoptotic cells (annexin-V/PI) ([2]; DU145, 20 mM, untreated control 2.3%): 11.9% | apoptotic cells (annexin-V/PI) ([2]; DU145, 40 mM, 48 h, untreated control 1.2%): 8.7% | apoptotic cells (annexin-V/PI) ([2]; DU145, 40 mM, untreated control 2.3%): 23.5% | cyt C release from mitochondria and chromatin condensation [3]: release of cyt C from mitochondria into cytosol and chromatin condensation | effect on growth of PrEC cell line [4]: no remarkable effect | Bcl-2 protein expression [5]: significantly decreased

Reference: patent US20110071094A1, “(D)-ALLOSE INDUCING PROGRAMMED CELL DEATH IN HORMONE REFRACTORY PROSTATE CANCER LINES” (INDUSTRY-ACADEMIC COOPERATION FOUDATION, GYEONGSANG …, priority 2008, published 2011)
